Active and inactive are the calls of the source. For most assays here, no stated cut-off is given here; in the data, actives have a measured IC50 and inactives only a lower limit.
Tests used:
[1] = biological target: Cytochrome P450 2D6 (Homo sapiens, UniProt P10635); experiment: qHTS Assay for Inhibitors and Substrates of Cytochrome P450 2D6. [Related pubchem assays: 410 ]; format: ADME; conditions: read-out: Potency
[2] = biological target: Nucleotide-binding oligomerization domain-containing protein 2 (Homo sapiens, UniProt Q9HC29); experiment: PubChem AID 2334; format: functional
[3] = biological target: Tumor necrosis factor (Homo sapiens, UniProt P01375); experiment: analog potency on TNFa NF-kB signaling – cell-based, revised, SAR follow-up (AID 2337); format: functional
[4] = tested on: HEK293; experiment: cells; conditions: Homo sapiens;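 further: cells exposed to compound for 14 hours overnight before viability readout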
[5] = biological target: T1, Nucleotide-binding oligomerization domain-containing protein 1 (Homo sapiens, UniProt Q9Y239); experiment: blockers of NOD1 pathway activity – revised, SAR follow-up (AID 2333); format: functional
T1 sequence (Q9Y239 whole entry): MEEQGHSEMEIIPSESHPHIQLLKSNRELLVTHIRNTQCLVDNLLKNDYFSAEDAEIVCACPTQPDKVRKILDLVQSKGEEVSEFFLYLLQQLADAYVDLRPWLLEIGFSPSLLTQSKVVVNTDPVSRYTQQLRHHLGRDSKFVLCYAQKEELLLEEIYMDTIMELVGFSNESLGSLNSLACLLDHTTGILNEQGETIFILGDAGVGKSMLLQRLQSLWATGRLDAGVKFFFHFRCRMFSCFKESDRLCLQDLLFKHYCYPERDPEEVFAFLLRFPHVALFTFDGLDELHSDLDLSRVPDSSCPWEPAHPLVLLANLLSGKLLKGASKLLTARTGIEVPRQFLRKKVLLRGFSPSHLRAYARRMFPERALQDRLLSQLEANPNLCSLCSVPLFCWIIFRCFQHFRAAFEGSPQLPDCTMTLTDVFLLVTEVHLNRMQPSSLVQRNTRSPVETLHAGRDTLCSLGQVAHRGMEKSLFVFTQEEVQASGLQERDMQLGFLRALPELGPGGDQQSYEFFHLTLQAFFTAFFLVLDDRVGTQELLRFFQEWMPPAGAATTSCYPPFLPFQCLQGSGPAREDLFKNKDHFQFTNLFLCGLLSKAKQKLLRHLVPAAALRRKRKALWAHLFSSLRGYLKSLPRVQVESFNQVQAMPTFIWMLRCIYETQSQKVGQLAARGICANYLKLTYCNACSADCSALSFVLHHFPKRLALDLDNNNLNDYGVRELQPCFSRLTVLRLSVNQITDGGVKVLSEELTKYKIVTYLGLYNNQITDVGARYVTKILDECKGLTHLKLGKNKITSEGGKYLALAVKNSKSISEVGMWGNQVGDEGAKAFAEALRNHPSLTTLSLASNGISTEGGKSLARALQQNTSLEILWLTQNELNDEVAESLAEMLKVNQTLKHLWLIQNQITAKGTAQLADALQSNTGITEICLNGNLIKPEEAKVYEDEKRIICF

[6] = biological target: T2, Alkaline phosphatase, tissue-nonspecific isozyme (Homo sapiens, UniProt P05186)
T2 sequence (P05186 whole entry): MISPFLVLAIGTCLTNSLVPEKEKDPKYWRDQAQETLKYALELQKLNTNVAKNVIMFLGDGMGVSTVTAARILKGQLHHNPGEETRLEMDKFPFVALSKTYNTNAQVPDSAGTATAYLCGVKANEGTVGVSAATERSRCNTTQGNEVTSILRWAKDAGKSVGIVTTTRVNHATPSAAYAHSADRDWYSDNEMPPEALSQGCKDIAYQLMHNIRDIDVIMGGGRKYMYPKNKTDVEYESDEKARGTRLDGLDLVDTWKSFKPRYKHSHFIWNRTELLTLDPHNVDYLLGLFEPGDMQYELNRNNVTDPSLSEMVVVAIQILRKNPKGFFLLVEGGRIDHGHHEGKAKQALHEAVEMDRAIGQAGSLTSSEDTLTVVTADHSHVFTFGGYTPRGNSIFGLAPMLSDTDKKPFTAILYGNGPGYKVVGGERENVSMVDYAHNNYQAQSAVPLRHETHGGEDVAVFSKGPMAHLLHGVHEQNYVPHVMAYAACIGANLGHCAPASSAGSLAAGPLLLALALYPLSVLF

[7] = biological target: Dual specificity protein phosphatase 3 (Homo sapiens, UniProt P51452); experiment: inhibition constants for human DUSP3 – biochemical, colorimetric, SAR follow-up (AID 2004)
Chain of Dual specificity protein phosphatase 3 (P51452 whole entry): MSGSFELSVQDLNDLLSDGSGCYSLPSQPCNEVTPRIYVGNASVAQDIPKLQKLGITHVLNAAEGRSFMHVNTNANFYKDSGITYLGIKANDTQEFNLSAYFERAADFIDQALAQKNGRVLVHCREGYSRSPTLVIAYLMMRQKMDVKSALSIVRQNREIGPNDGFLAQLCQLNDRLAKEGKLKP

Chain of Tumor necrosis factor (P01375 whole entry): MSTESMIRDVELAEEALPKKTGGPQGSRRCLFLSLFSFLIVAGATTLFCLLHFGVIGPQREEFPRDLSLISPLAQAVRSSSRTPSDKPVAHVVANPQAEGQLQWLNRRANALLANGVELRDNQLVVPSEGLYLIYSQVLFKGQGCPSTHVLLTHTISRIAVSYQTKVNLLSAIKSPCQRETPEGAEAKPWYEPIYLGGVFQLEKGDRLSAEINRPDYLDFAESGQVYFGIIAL
Chain of Nucleotide-binding oligomerization domain-containing protein 2 (Q9HC29 whole entry, the tested form may be a part): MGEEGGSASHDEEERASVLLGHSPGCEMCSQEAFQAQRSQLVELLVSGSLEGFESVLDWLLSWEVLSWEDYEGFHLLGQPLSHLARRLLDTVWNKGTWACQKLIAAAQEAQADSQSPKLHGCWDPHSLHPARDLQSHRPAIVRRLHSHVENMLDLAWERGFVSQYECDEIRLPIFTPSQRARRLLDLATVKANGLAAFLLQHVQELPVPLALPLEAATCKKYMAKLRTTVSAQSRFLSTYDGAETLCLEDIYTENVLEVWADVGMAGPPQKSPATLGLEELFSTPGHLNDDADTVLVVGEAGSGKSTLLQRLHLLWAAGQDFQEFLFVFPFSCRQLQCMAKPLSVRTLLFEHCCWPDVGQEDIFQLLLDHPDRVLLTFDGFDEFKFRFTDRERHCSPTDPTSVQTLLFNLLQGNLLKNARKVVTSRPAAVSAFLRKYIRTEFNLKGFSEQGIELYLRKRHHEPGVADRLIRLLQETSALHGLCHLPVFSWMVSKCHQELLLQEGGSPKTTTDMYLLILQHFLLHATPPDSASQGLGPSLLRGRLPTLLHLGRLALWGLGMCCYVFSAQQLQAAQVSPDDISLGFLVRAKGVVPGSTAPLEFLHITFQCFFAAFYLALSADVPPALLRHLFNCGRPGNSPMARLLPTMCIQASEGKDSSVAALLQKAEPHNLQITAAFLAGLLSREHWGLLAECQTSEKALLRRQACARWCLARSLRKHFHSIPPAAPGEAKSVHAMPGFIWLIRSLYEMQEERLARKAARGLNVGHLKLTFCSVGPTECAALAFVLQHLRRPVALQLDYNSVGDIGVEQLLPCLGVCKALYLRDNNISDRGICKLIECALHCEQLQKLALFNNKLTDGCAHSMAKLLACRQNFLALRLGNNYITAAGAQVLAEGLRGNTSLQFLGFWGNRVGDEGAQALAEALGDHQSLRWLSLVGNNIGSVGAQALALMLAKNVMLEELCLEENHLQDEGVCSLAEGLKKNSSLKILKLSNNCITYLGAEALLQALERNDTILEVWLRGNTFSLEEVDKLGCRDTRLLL
Chain of Cytochrome P450 2D6 (P10635 whole entry, the tested form may be a part): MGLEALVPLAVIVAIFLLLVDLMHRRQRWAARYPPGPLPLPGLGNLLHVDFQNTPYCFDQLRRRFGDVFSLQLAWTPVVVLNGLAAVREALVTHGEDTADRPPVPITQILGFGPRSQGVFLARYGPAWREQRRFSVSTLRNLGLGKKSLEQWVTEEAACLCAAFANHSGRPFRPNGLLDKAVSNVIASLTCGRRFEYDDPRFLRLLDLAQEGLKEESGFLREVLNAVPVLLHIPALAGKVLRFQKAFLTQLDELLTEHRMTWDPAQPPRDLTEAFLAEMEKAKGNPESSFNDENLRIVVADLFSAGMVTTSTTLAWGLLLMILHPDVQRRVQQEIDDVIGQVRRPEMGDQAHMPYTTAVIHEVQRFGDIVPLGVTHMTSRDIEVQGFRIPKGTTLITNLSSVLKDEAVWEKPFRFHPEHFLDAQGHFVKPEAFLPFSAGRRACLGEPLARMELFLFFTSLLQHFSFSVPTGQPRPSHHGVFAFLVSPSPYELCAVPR

Compound: CCCCc1nc2c(c3c1CC(C)OC3)CN(CCC(C)C)CC2 (configuration not stated)
- AC50 [1]: 3.98 µM (inconclusive)

Compound: CCCCNCC(=O)Nc1sc2c(c1C(=O)O)CCCC2
- IC50 [2]: > 20 µM (inactive)
- IC50 [3]: > 20 µM (inactive)
- IC50 [4]: > 20 µM (inactive)
- IC50 [5]: > 20 µM (inactive)

Compound: Cn1c(=O)c2c(nc(N/N=C/c3cccs3)n2Cc2ccc(Br)cc2)n(C)c1=O
- EC50 [6]: > 100 µM (not active)

Compound: CCOC(=O)c1c(N)sc2c1CCN(Cc1ccccc1)C2 [TINORIDINE]
- Ki [7]: 20.5 µM (inactive)

From ChEMBL document CHEMBL1201862, “PubChem BioAssay data set” (2004)
